Here are results for six compounds from patent US10363239B2, “Method for inhibiting growth of cancer cells” (Pain Therapeutics, Inc., priority 2013, dated 2019).

For one experiment, the target named is FLNA pentapeptide of SEQ ID NO: 1 (Bn-VAKGL) (Homo sapiens, UniProt P21333). In words: FITC-NLX-based FLNA screening assay (inhibition of FITC-naloxone binding to Bn-VAKGL on streptavidin plates). Conditions: FLNA-binding compound 0.01 μM; 10 nM FITC-NLX; read-out: Percent Binding Inhibition.
As to `COc1ccccc1CC(O)CC1c2c(cc3c(c2OC)OCO3)CCN1C` (stereo not drawn) [Compound B0030], the inhibition at 0.01 µM was 47%.
Turning to `O=C(O)c1ccc(C(=O)N2CCC3(CC2)OCCN3S(=O)(=O)c2ccc(C(=O)O)cc2)cc1` [Compound C0021], the inhibition at 0.01 µM amounted to 34%.
Still for that read-out and setting: as for `O=[N+]([O-])c1ccc(S(=O)(=O)N2CCC3(CC2)NCCS3)cc1` [Compound C0044], the figure is 37.3%.
Take `COc1ccc(C(=O)N2CCC3(CC2)OCCN3C(=O)c2ccc(OC)cc2)cc1` [Compound C0017]: the inhibition at 0.01 µM was determined as 28.9%.

The experiment is the same for the next values; noted with them: FLNA-binding compound 0.1 μM; 10 nM FITC-NLX; read-out: Percent Binding Inhibition.
`COc1ccccc1CC(O)CC1c2c(cc3c(c2OC)OCO3)CCN1C` (stereo not drawn) [Compound B0030]: the inhibition at 0.1 µM came out at 50.5%.
The same measure, in the same setting: as for `O=C(O)c1ccc(C(=O)N2CCC3(CC2)OCCN3S(=O)(=O)c2ccc(C(=O)O)cc2)cc1` [Compound C0021], the figure is 38.4%; as for `O=[N+]([O-])c1ccc(S(=O)(=O)N2CCC3(CC2)NCCS3)cc1` [Compound C0044], 43.9%; as for `COc1ccc(C(=O)N2CCC3(CC2)OCCN3C(=O)c2ccc(OC)cc2)cc1` [Compound C0017], 35.4%.

Still in this experiment, the particulars now being: FLNA-binding compound 1 μM; 10 nM FITC-NLX; read-out: Percent Binding Inhibition.
On to `COc1ccccc1CC(O)CC1c2c(cc3c(c2OC)OCO3)CCN1C` (stereo not drawn) [Compound B0030], for which the inhibition at 1 µM was 57.6%.
On the same count and under the same terms, the result for `O=C(O)c1ccc(C(=O)N2CCC3(CC2)OCCN3S(=O)(=O)c2ccc(C(=O)O)cc2)cc1` [Compound C0021] reads 40.6%.
Consider `O=[N+]([O-])c1ccc(S(=O)(=O)N2CCC3(CC2)NCCS3)cc1` [Compound C0044], for which the inhibition at 1 µM stood at 50.6%.
On to `COc1ccc(C(=O)N2CCC3(CC2)OCCN3C(=O)c2ccc(OC)cc2)cc1` [Compound C0017], for which the inhibition at 1 µM came out at 40.7%.

The experiment is the same for the next values; noted with them: read-out: Percent Binding Inhibition, FLNA-binding compound 0.01 μM; 10 nM FITC-NLX.
Regarding `CS(=O)(=O)c1ccc(S(=O)(=O)N2CCC3(CC2)OCCN3S(=O)(=O)c2ccc(S(C)(=O)=O)cc2)cc1` [Compound C0009], the inhibition at 0.01 µM turned out to be 41.7%.
The same measure, in the same setting: the result for `COc1c2c(cc3c1C(CC(=O)c1ccc(C#N)cc1)[N+](C)(C)CC3)OCO2` (stereo not drawn) [Compound B0001] reads 37.1%.

Staying with this experiment, now noted: read-out: Percent Binding Inhibition, FLNA-binding compound 0.1 μM; 10 nM FITC-NLX.
Regarding `CS(=O)(=O)c1ccc(S(=O)(=O)N2CCC3(CC2)OCCN3S(=O)(=O)c2ccc(S(C)(=O)=O)cc2)cc1` [Compound C0009], the inhibition at 0.1 µM came out at 49%.
Same read-out and setting: the result for `COc1c2c(cc3c1C(CC(=O)c1ccc(C#N)cc1)[N+](C)(C)CC3)OCO2` (stereo not drawn) [Compound B0001] reads 48.8%.

The experiment is the same for the next values; noted with them: read-out: Percent Binding Inhibition, FLNA-binding compound 1 μM; 10 nM FITC-NLX.
With `CS(=O)(=O)c1ccc(S(=O)(=O)N2CCC3(CC2)OCCN3S(=O)(=O)c2ccc(S(C)(=O)=O)cc2)cc1` [Compound C0009], the inhibition at 1 µM was found to be 53.9%.
Still for that read-out and setting: the result for `COc1c2c(cc3c1C(CC(=O)c1ccc(C#N)cc1)[N+](C)(C)CC3)OCO2` (stereo not drawn) [Compound B0001] reads 54.3%.

The subject of another experiment is mu opiate receptor (MOR). The experiment in a line: MOR agonist activity using [35S]GTPγS binding assay in striatal membranes. The class given is biochemical. Conditions: Series B; 0.1 μM compound, relative to DAMGO. In outline: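 Striatal membranes (200 μg) were preincubated 5 min at 30 °C in HEPES pH 7.5 with 100 mM NaCl, 1 mM MgCl2 and 0.5 nM [35S]GTPγS, then 5 min more with 0.1–10 μM compound. Gαo was immunoprecipitated and bound radioactivity counted by scintillation.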
For `COc1ccccc1CC(O)CC1c2c(cc3c(c2OC)OCO3)CCN1C` (stereo not drawn) [Compound B0030], the “% DAMGO (0.1 μM)” value turned out to be 62.6%.
`COc1c2c(cc3c1C(CC(=O)c1ccc(C#N)cc1)[N+](C)(C)CC3)OCO2` (stereo not drawn) [Compound B0001]: the “% DAMGO (0.1 μM)” value was found to be 77.4%.

The same experiment, now with this note: Series B; 0.1 μM compound; [35S]GTPγS binding to Gαo, striatal membranes.
As for `COc1ccccc1CC(O)CC1c2c(cc3c(c2OC)OCO3)CCN1C` (stereo not drawn) [Compound B0030], the “MOR agonist activity, percent [35S]GTPγS binding at the stated compound concentration” value (from here on “MOR agonist activity, percent”) is 107.2%.
As to `COc1c2c(cc3c1C(CC(=O)c1ccc(C#N)cc1)[N+](C)(C)CC3)OCO2` (stereo not drawn) [Compound B0001], the “MOR agonist activity, percent” value worked out at 128.2%.

The same experiment, now with this note: Series B; 1 μM compound + 1 μM β-FNA.
On to `COc1ccccc1CC(O)CC1c2c(cc3c(c2OC)OCO3)CCN1C` (stereo not drawn) [Compound B0030], for which the “MOR agonist activity, percent” value is 90.1%.
Consider `COc1c2c(cc3c1C(CC(=O)c1ccc(C#N)cc1)[N+](C)(C)CC3)OCO2` (stereo not drawn) [Compound B0001], for which the “MOR agonist activity, percent” value is 28.0%.

The same experiment, now with this note: Series B; 1 μM compound + β-FNA, relative to DAMGO + BFNA.
As for `COc1ccccc1CC(O)CC1c2c(cc3c(c2OC)OCO3)CCN1C` (stereo not drawn) [Compound B0030], the “% DAMGO + BFNA” value is recorded as 172.9%.
On to `COc1c2c(cc3c1C(CC(=O)c1ccc(C#N)cc1)[N+](C)(C)CC3)OCO2` (stereo not drawn) [Compound B0001], for which the “% DAMGO + BFNA” value is on record as 43.1%.

The same experiment, now with this note: Series B; 1 μM compound, relative to DAMGO.
Regarding `COc1ccccc1CC(O)CC1c2c(cc3c(c2OC)OCO3)CCN1C` (stereo not drawn) [Compound B0030], the “% DAMGO (1 μM)” value is recorded as 103.4%.
Same read-out and setting: the result for `COc1c2c(cc3c1C(CC(=O)c1ccc(C#N)cc1)[N+](C)(C)CC3)OCO2` (stereo not drawn) [Compound B0001] reads 74.9%.

Still in this experiment, the particulars now being: Series B; 1 μM compound; [35S]GTPγS binding to Gαo, striatal membranes.
As for `COc1ccccc1CC(O)CC1c2c(cc3c(c2OC)OCO3)CCN1C` (stereo not drawn) [Compound B0030], the “MOR agonist activity, percent” value is 276.1%.
Same read-out and setting: the result for `COc1c2c(cc3c1C(CC(=O)c1ccc(C#N)cc1)[N+](C)(C)CC3)OCO2` (stereo not drawn) [Compound B0001] reads 202.3%.

Still in this experiment, the particulars now being: Series C-1; 0.1 μM compound, relative to DAMGO.
With `CS(=O)(=O)c1ccc(S(=O)(=O)N2CCC3(CC2)OCCN3S(=O)(=O)c2ccc(S(C)(=O)=O)cc2)cc1` [Compound C0009], the “% DAMGO (0.1 μM)” value is 85.1%.
Same read-out and setting: the result for `O=C(O)c1ccc(C(=O)N2CCC3(CC2)OCCN3S(=O)(=O)c2ccc(C(=O)O)cc2)cc1` [Compound C0021] reads 94.5%; that for `COc1ccc(C(=O)N2CCC3(CC2)OCCN3C(=O)c2ccc(OC)cc2)cc1` [Compound C0017], 87.1%.

The experiment is the same for the next values; noted with them: Series C-1; 0.1 μM compound; [35S]GTPγS binding to Gαo, striatal membranes.
On to `CS(=O)(=O)c1ccc(S(=O)(=O)N2CCC3(CC2)OCCN3S(=O)(=O)c2ccc(S(C)(=O)=O)cc2)cc1` [Compound C0009], for which the “Concentration of FLNA-Binding Compound as Agonist 0.1 μM” value amounted to 146.3%.
Consider `O=C(O)c1ccc(C(=O)N2CCC3(CC2)OCCN3S(=O)(=O)c2ccc(C(=O)O)cc2)cc1` [Compound C0021], for which the “Concentration of FLNA-Binding Compound as Agonist 0.1 μM” value came out at 159.7%.
The same measure, in the same setting: the result for `COc1ccc(C(=O)N2CCC3(CC2)OCCN3C(=O)c2ccc(OC)cc2)cc1` [Compound C0017] reads 153.8%.

The same experiment, now with this note: Series C-1; 1 μM compound + 1 μM β-FNA.
For `CS(=O)(=O)c1ccc(S(=O)(=O)N2CCC3(CC2)OCCN3S(=O)(=O)c2ccc(S(C)(=O)=O)cc2)cc1` [Compound C0009], the “Concentration of FLNA-Binding Compound as Agonist 1 μM + BFNA” value (“Concentration … as Agonist 1 μM + BFNA” for short) came out at 26.4%.
`O=C(O)c1ccc(C(=O)N2CCC3(CC2)OCCN3S(=O)(=O)c2ccc(C(=O)O)cc2)cc1` [Compound C0021]: the “Concentration … as Agonist 1 μM + BFNA” value turned out to be 90.7%.
For `COc1ccc(C(=O)N2CCC3(CC2)OCCN3C(=O)c2ccc(OC)cc2)cc1` [Compound C0017], the “Concentration … as Agonist 1 μM + BFNA” value was 94.1%.

Still in this experiment, the particulars now being: Series C-1; 1 μM compound + β-FNA, relative to DAMGO + BFNA.
`CS(=O)(=O)c1ccc(S(=O)(=O)N2CCC3(CC2)OCCN3S(=O)(=O)c2ccc(S(C)(=O)=O)cc2)cc1` [Compound C0009]: the “% DAMGO + BFNA” value turned out to be 41.2%.
The same measure, in the same setting: the result for `O=C(O)c1ccc(C(=O)N2CCC3(CC2)OCCN3S(=O)(=O)c2ccc(C(=O)O)cc2)cc1` [Compound C0021] reads 546.4%; that for `COc1ccc(C(=O)N2CCC3(CC2)OCCN3C(=O)c2ccc(OC)cc2)cc1` [Compound C0017], 143.2%.

Still in this experiment, the particulars now being: Series C-1; 1 μM compound, relative to DAMGO.
For the compound `CS(=O)(=O)c1ccc(S(=O)(=O)N2CCC3(CC2)OCCN3S(=O)(=O)c2ccc(S(C)(=O)=O)cc2)cc1` [Compound C0009], the “% DAMGO (1 μM)” value is 92.6%.
For the compound `O=C(O)c1ccc(C(=O)N2CCC3(CC2)OCCN3S(=O)(=O)c2ccc(C(=O)O)cc2)cc1` [Compound C0021], the “% DAMGO (1 μM)” value was determined as 87.8%.
In the case of `COc1ccc(C(=O)N2CCC3(CC2)OCCN3C(=O)c2ccc(OC)cc2)cc1` [Compound C0017], the “% DAMGO (1 μM)” value is 109.7%.

The experiment is the same for the next values; noted with them: Series C-1; 1 μM compound; [35S]GTPγS binding to Gαo, striatal membranes.
Consider `CS(=O)(=O)c1ccc(S(=O)(=O)N2CCC3(CC2)OCCN3S(=O)(=O)c2ccc(S(C)(=O)=O)cc2)cc1` [Compound C0009], for which the “Concentration of FLNA-Binding Compound as Agonist 1 μM” value was determined as 256.2%.
Same read-out and setting: the result for `O=C(O)c1ccc(C(=O)N2CCC3(CC2)OCCN3S(=O)(=O)c2ccc(C(=O)O)cc2)cc1` [Compound C0021] reads 192.0%.
Turning to `COc1ccc(C(=O)N2CCC3(CC2)OCCN3C(=O)c2ccc(OC)cc2)cc1` [Compound C0017], the “Concentration of FLNA-Binding Compound as Agonist 1 μM” value turned out to be 284.5%.

Staying with this experiment, now noted: Series C-2; 0.1 μM compound, relative to DAMGO.
As to `O=[N+]([O-])c1ccc(S(=O)(=O)N2CCC3(CC2)NCCS3)cc1` [Compound C0044], the “% DAMGO (0.1 μM)” value turned out to be 102.8%.

Staying with this experiment, now noted: Series C-2; 0.1 μM compound; [35S]GTPγS binding to Gαo, striatal membranes.
As to `O=[N+]([O-])c1ccc(S(=O)(=O)N2CCC3(CC2)NCCS3)cc1` [Compound C0044], the “MOR agonist activity, percent” value is reported as 173.7%.

The experiment is the same for the next values; noted with them: Series C-2; 1 μM compound + 1 μM β-FNA.
Consider `O=[N+]([O-])c1ccc(S(=O)(=O)N2CCC3(CC2)NCCS3)cc1` [Compound C0044], for which the “MOR agonist activity, percent” value is given as 59.1%.

The experiment is the same for the next values; noted with them: Series C-2; 1 μM compound + β-FNA, relative to DAMGO + BFNA.
For `O=[N+]([O-])c1ccc(S(=O)(=O)N2CCC3(CC2)NCCS3)cc1` [Compound C0044], the “% DAMGO + BFNA” value is given as 356.0%.

The same experiment, now with this note: Series C-2; 1 μM compound, relative to DAMGO.
`O=[N+]([O-])c1ccc(S(=O)(=O)N2CCC3(CC2)NCCS3)cc1` [Compound C0044]: the “% DAMGO (1 μM)” value is listed as 128.0%.

Staying with this experiment, now noted: Series C-2; 1 μM compound; [35S]GTPγS binding to Gαo, striatal membranes.
In the case of `O=[N+]([O-])c1ccc(S(=O)(=O)N2CCC3(CC2)NCCS3)cc1` [Compound C0044], the “MOR agonist activity, percent” value was found to be 280.1%.
